Data: patent US20240368127A1, “HSD17B13 INHIBITORS AND USES THEREOF” (FL2022-001, Inc., priority 2021, published 2024)

Molecular target: T1, Recombinant human HSD17B13 enzyme (Homo sapiens, UniProt Q7Z5P4)
T1 sequence (Q7Z5P4 20-300): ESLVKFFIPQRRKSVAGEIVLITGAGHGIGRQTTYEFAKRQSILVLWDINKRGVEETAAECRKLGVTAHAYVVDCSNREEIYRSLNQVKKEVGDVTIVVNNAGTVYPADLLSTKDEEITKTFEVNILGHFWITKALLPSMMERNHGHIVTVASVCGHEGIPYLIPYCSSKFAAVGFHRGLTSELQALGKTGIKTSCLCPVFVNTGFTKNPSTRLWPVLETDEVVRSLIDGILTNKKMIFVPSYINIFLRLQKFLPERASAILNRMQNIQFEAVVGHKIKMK
Assay: HSD17b13 NAD(P)H-Glo biochemical assay
Conditions: 50 μM estradiol, 1 mM NAD+, 37° C. for 3 hours; read-out: HSD17β13 IC50
Protocol: Example B-1: HSD17b13 NAD (P) H-Glo Biochemical Assay
Recombinant human HSD17B13 enzyme. Substrate: estradiol (Sigma β-Estradiol E8875), 100 mM in DMSO. Cofactor: NAD+ Grade I free acid (Sigma 10127965001), 20 mM in H2O. Assay buffer final concentration: 20 mM Tris pH7.4 with 0.002% Tween-20 and 0.02% BSA. Assay performed in 384 well solid bottom plate (Corning 3570). Enzymatic activity detected by NAD (P) H-Glo™ Detection System (Promega G9062).
Inhibitor compounds were serially diluted in DMSO and then further diluted in assay buffer to a 10× concentration consisting of 1% DMSO.
HSD17b13 enzyme was diluted in 1× assay buffer to the desired enzyme concentration based on the specific activity of the enzyme lot. 20 μL of diluted enzyme was added to each well along with 2.5 μL of 10× inhibitor solution. Assay plate was incubated at RT for 20 minutes, and then 2.5 μL of a 10× substrate/cofactor mix was added to each well for a final concentration of 50 μM estradiol and 1 mM NAD+. Assay plate was incubated at 37° C. for 3 hours. NAD (P) H-Glo™ Detection System reagents were prepared according to manufacturer's specifications, and 25 μL was added to each well. After incubating for 1 hour at RT, luminescence was measured.

IC50 [nM] | Structure (SMILES)
≤ 100 | Cn1nc(-c2cc(C(F)(F)F)c(F)c(O)c2F)c2cnc(N3CCN(S(C)(=O)=O)C[C@@H]3CC3CCCCC3)nc21 (single isomer, unassigned) [Compound 15.01]
≤ 100 | Cn1nc(-c2cc(C(F)(F)F)c(F)c(O)c2F)c2cnc(N3CCOC[C@H]3CC3CCCCC3)nc21 (single isomer, unassigned) [Compound 15.04]
≤ 100 | Cn1nc(-c2cc(C(F)(F)F)c(F)c(O)c2F)c2cnc(N3CC[C@H]3Cc3ccccc3)nc21 (single isomer, unassigned) [Compound 15.10]
≤ 100 | CS(=O)(=O)N1CCN(c2ccc(-n3nnc4cc(F)c(O)c(F)c43)cc2)[C@H](Cc2ccccc2)C1 [Compound 1, (R)-1-(4-(2-Benzyl-4-(methylsulfonyl)piperazin-1-yl)phenyl)-5,7-difluoro-1H-benzo[d][1,2,3]triazol-6-ol]
100 to 1000 | CS(=O)(=O)N1CCN(c2ccc(-n3nnc4cc(F)c(O)c(F)c43)cc2)[C@@H](Cc2ccccc2)C1 [Compound 1.01, (S)-1-(4-(2-Benzyl-4-(methylsulfonyl)piperazin-1-yl)phenyl)-5,7-difluoro-1H-benzo[d][1,2,3]triazol-6-ol]
≤ 100 | CS(=O)(=O)N1CCN(c2ccc(-n3nnc4cc(F)c(O)c(F)c43)cc2)C[C@@H]1Cc1ccccc1 [Compound 1.02, (S)-1-(4-(3-Benzyl-4-(methylsulfonyl)piperazin-1-yl)phenyl)-5,7-difluoro-1H-benzo[d][1,2,3]triazol-6-ol]
≤ 100 | CS(=O)(=O)N1CCN(c2ccc(-n3nnc4cc(F)c(O)c(F)c43)cc2)C[C@H]1Cc1ccccc1 [Compound 1.03, (R)-1-(4-(3-Benzyl-4-(methylsulfonyl)piperazin-1-yl)phenyl)-5,7-difluoro-1H-benzo[d][1,2,3]triazol-6-ol]
100 to 1000 | Oc1c(F)cc2nnn(-c3ccc(N4CCO[C@@H](Cc5ccccc5)C4)cc3)c2c1F [Compound 1.04, (S)-1-(4-(2-Benzylmorpholino)phenyl)-5,7-difluoro-1H-benzo[d][1,2,3]triazol-6-ol]
100 to 1000 | Oc1c(F)cc2nnn(-c3ccc(N4CCOC[C@H]4Cc4ccccc4)cc3)c2c1F [Compound 1.05, (R)-1-(4-(3-Benzylmorpholino)phenyl)-5,7-difluoro-1H-benzo[d][1,2,3]triazol-6-ol]
≤ 100 | Oc1c(F)cc2nnn(-c3ccc(N4CC[C@@H](Cc5ccccc5)C4)cc3)c2c1F [Compound 1.06, (R)-1-(4-(3-Benzylpyrrolidin-1-yl)phenyl)-5,7-difluoro-1H-benzo[d][1,2,3]triazol-6-ol]
≤ 100 | Oc1c(F)cc2nnn(-c3ccc(N4CC[C@H](Cc5ccccc5)C4)cc3)c2c1F [Compound 1.07, (S)-1-(4-(3-Benzylpyrrolidin-1-yl)phenyl)-5,7-difluoro-1H-benzo[d][1,2,3]triazol-6-ol]
≤ 100 | Oc1c(F)cc2nnn(-c3ccc(N4CCC(Cc5ccccc5)CC4)cc3)c2c1F [Compound 1.08, 1-(4-(4-Benzylpiperidin-1-yl)phenyl)-5,7-difluoro-1H-benzo[d][1,2,3]triazol-6-ol]
≤ 100 | Oc1c(F)cc2nnn(-c3ccc(N4CCCC(Cc5ccccc5)CC4)cc3)c2c1F (centres unmarked) [Compound 1.09, 1-(4-(4-Benzylazepan-1-yl)phenyl)-5,7-difluoro-1H-benzo[d][1,2,3]triazol-6-ol]
≤ 100 | CC1(Cc2ccccc2)CCN(c2ccc(-n3nnc4cc(F)c(O)c(F)c43)cc2)CC1 [Compound 1.10, 1-(4-(4-Benzyl-4-methylpiperidin-1-yl)phenyl)-5,7-difluoro-1H-benzo[d][1,2,3]triazol-6-ol]
≤ 100 | Cc1nn(-c2cc(C(F)(F)F)c(F)c(O)c2F)c2cnc(N3CCN(S(C)(=O)=O)C[C@H]3Cc3ccccc3)nc12 [Compound 2, (R)-3-(5-(2-Benzyl-4-(methylsulfonyl)piperazin-1-yl)-3-methyl-1H-pyrazolo[4,3-d]pyrimidin-1-yl)-2,6-difluoro-5-(trifluoromethyl)phenol]
≤ 100 | Cc1nn(-c2cc(C(F)(F)F)c(F)c(O)c2F)c2cnc(N3CCOCC3Cc3ccccc3)cc12 (centres unmarked) [Compound 2.01, 3-(5-(3-Benzylmorpholino)-3-methyl-1H-pyrazolo[3,4-c]pyridin-1-yl)-2,6-difluoro-5-(trifluoromethyl)phenol]
≤ 100 | Cc1nn(-c2cc(C(F)(F)F)c(F)c(O)c2F)c2cnc(N3CCN(S(C)(=O)=O)C[C@H]3Cc3ccccc3)cc12 [Compound 2.02, (R)-3-(5-(2-Benzyl-4-(methylsulfonyl)piperazin-1-yl)-3-methyl-1H-pyrazolo[3,4-c]pyridin-1-yl)-2,6-difluoro-5-(trifluoromethyl)phenol]
100 to 1000 | Cc1nn(-c2cc(C(F)(F)F)c(F)c(O)c2F)c2cnc(N3CCN(S(C)(=O)=O)C[C@@H]3Cc3ccccc3)cc12 [Compound 2.03, (S)-3-(5-(2-Benzyl-4-(methylsulfonyl)piperazin-1-yl)-3-methyl-1H-pyrazolo[3,4-c]pyridin-1-yl)-2,6-difluoro-5-(trifluoromethyl)phenol]
≤ 100 | Cc1nn(-c2cc(C(F)(F)F)c(F)c(O)c2F)c2cnc(N3CCOC(Cc4ccccc4)C3)cc12 (centres unmarked) [Compound 2.04, 3-(5-(2-Benzylmorpholino)-3-methyl-1H-pyrazolo[3,4-c]pyridin-1-yl)-2,6-difluoro-5-(trifluoromethyl)phenol]
100 to 1000 | Cc1nn(-c2cc(C(F)(F)F)cc(O)c2F)c2cnc(N3CCOC(Cc4ccccc4)C3)cc12 (centres unmarked) [Compound 2.05, 3-(5-(2-Benzylmorpholino)-3-methyl-1H-pyrazolo[3,4-c]pyridin-1-yl)-2-fluoro-5-(trifluoromethyl)phenol]
≤ 100 | CS(=O)(=O)N1CCN(c2ccc3c(c2)c(Cl)nn3-c2cc(C(F)(F)F)c(F)c(O)c2F)[C@H](Cc2ccccc2)C1 [Compound 2.06, (R)-3-(5-(2-Benzyl-4-(methylsulfonyl)piperazin-1-yl)-3-chloro-1H-indazol-1-yl)-2,6-difluoro-5-(trifluoromethyl)phenol]
≤ 100 | Cc1nn(-c2cc(C(F)(F)F)c(F)c(O)c2F)c2cnc(N3CCN(S(C)(=O)=O)[C@H](Cc4ccccc4)C3)cc12 [Compound 2.07, (R)-3-(5-(3-Benzyl-4-(methylsulfonyl)piperazin-1-yl)-3-methyl-1H-pyrazolo[3,4-c]pyridin-1-yl)-2,6-difluoro-5-(trifluoromethyl)phenol]
≤ 100 | CC(=O)c1nn(-c2cc(C(F)(F)F)c(F)c(O)c2F)c2ccc(N3CCN(S(C)(=O)=O)C[C@H]3Cc3ccccc3)cc12 [Compound 2.08]
≤ 100 | CS(=O)(=O)N1CCN(c2ncc3c(cnn3-c3cc(C(F)(F)F)c(F)c(O)c3F)n2)[C@H](Cc2ccccc2)C1 [Compound 2.09, (R)-3-(5-(2-Benzyl-4-(methylsulfonyl)piperazin-1-yl)-1H-pyrazolo[4,3-d]pyrimidin-1-yl)-2,6-difluoro-5-(trifluoromethyl)phenol]
≤ 100 | Cc1nn(-c2cc(C(F)(F)F)c(F)c(O)c2F)c2cnc(N3CCN(S(C)(=O)=O)[C@@H](Cc4ccccc4)C3)cc12 [Compound 2.10, (S)-3-(5-(3-Benzyl-4-(methylsulfonyl)piperazin-1-yl)-3-methyl-1H-pyrazolo[3,4-c]pyridin-1-yl)-2,6-difluoro-5-(trifluoromethyl)phenol]
≤ 100 | Cc1nn(-c2cc(C(F)(F)F)c(Cl)c(O)c2F)c2cnc(N3CCN(S(C)(=O)=O)C[C@H]3Cc3ccccc3)cc12 [Compound 2.11, (R)-3-(5-(2-Benzyl-4-(methylsulfonyl)piperazin-1-yl)-3-methyl-1H-pyrazolo[3,4-c]pyridin-1-yl)-6-chloro-2-fluoro-5-(trifluoromethyl)phenol]
≤ 100 | CS(=O)(=O)N1CCN(c2ccc3c(c2)c(N)nn3-c2cc(C(F)(F)F)c(F)c(O)c2F)[C@H](Cc2ccccc2)C1 [Compound 2.12, (R)-3-(3-Amino-5-(2-benzyl-4-(methylsulfonyl)piperazin-1-yl)-1H-indazol-1-yl)-2,6-difluoro-5-(trifluoromethyl)phenol]
≤ 100 | Cc1nn(-c2cc(C(F)(F)F)c(F)c(O)c2F)c2ccc(N3CCN(S(C)(=O)=O)C[C@H]3Cc3ccccc3)cc12 [Compound 2.13, (R)-3-(5-(2-Benzyl-4-(methylsulfonyl)piperazin-1-yl)-3-methyl-1H-indazol-1-yl)-2,6-difluoro-5-(trifluoromethyl)phenol]
≤ 100 | CNc1nn(-c2cc(C(F)(F)F)c(F)c(O)c2F)c2ccc(N3CCN(S(C)(=O)=O)C[C@H]3Cc3ccccc3)cc12 [Compound 2.14, (R)-3-(5-(2-Benzyl-4-(methylsulfonyl)piperazin-1-yl)-3-(methylamino)-1H-indazol-1-yl)-2,6-difluoro-5-(trifluoromethyl)phenol]
